How the values were obtained:
[1] = test system: decay of Radiata pine sapwood panels (field exposure, Hawaii); assay: Hawaiian field trial, flat panel test on treated radiata pine sapwood panels
Experimental: Radiata pine sapwood panels (200×70×25 mm) were treated with various preservatives and exposed on racks at 45°, using a method generally described as the “flat panel test” (Reference: Australasian Wood Preservation Committee, Protocols for Assessment of Wood Preservatives, March 2007 Revision, pp. 32). Untreated controls, solvent-treated controls and panels treated with reference preservatives (e.g., CCA) were also included in this field test. Note: All formulations contained the insecticide permethrin at a concentration sufficient to deliver approximately 0.02% m/m active in the treated panels. After approximately three years outdoor exposure in Hawaii, the specimens were rated using a typical 0 to 10 rating system (e.g., Evaluation Standard […], AWPA Book of Standards, 2010, American Wood Protection Association, Birmingham, Ala.), where 7 is the lowest score where the specimen is deemed still to be serviceable.

Coniophora olivacea = assay: Laboratory fungal bioassay (Example 6), mass loss of treated, leached radiata pine sapwood; format: cell-based
Experimental: (§1) The bioassay was carried out in accordance with recognised methods (see, Protocols for the Assessment of Wood Preservatives, Australasian Wood Preservation Committee, March 2007 Revision, Ensis, Clayton).
(§2) Radiata pine sapwood (20×20×10 mm) specimens were treated with various preservative formulations. After drying the specimens were saturated with water and leached in a shaking water-bath at 35° C. for seven days, with daily changes of water. After leaching, the specimens were vacuum oven dried, before being sterilised in readiness for the fungal bioassay. The bioassay was carried out in accordance with standard laboratory techniques, by an independent research provider.
(§3) Mass loss was used to determine the effectiveness of a preservative treatment. […] Decay is deemed to have been prevented if the mass loss is less than 3%.
Some basidiomycete decay fungi are more tolerant to azoles that others. In this bioassay, a selection of brown rot fungi were chosen. One of those chosen, Coniophora olivacea, is relatively resistant to azoles.

Fomitopsis lilacinogilva = assay: as above; format: cell-based
Experimental: as §1, §2, §3
Fomitopsis lilacinogilva is a wood-rotting bracket fungus common in many places of Gondwanaland origin. It is found on logs, stumps, and some outdoor wooden constructions. It forms fans, shelves, pads or crusts, to 100 mm across, is hairy, crusted above, zoned pinkish and brownish. The results against Fomitopsis lilacinogilva were less spectacular. Azole/zinc 1:2 gave 10% mass loss; 1:1 gave 15.9% mass loss; and azoles alone gave 19.9% mass loss versus the control (71.5% mass loss).

[2] = retention 0.1% m/m (as Zn metal)
[3] = retention 0.2% m/m (as Zn metal)
[4] = retention 0.3% m/m (as Zn metal)

Substance | Comment (decay state of panels) ([1]; retention 0.11% m/m Cu, approx. three years outdoor exposure in Hawaii, permethrin approx. 0.02% m/m) | Minimum effective retention to prevent decay, as copper ([1]; three year inspection, Hawaii, expressed as copper) [% m/m] | C. olivacea Mass Loss (%) (Coniophora olivacea; [2]) | C. olivacea Mass Loss (%) (Coniophora olivacea; [3]) | C. olivacea Mass Loss (%) (Coniophora olivacea; [4]) | F. lilacinogilva Mass Loss (%) (Fomitopsis lilacinogilva; [2]) | F. lilacinogilva Mass Loss (%) (Fomitopsis lilacinogilva; [3]) | F. lilacinogilva Mass Loss (%) (Fomitopsis lilacinogilva; [4])
copper naphthenate | Heavily decayed | > 0.11 |  |  |  |  |  | 
zinc naphthenate [ZnN] |  |  | 50.5 | 42.8 | 28.4 | 65.8 | 60.2 | 53.5

Source: US20140370320A1, “WOOD PRESERVATIVE” (Arch Wood Protection Pty Ltd, priority 2011, published 2014)
